The target in assay [1] is Adenosine A2A receptor (Tag-lite Adenosine A2A labeled cells) (Homo sapiens (Human), UniProt P29274). Nature of the assay: A2A Tag-lite HTRF Assay. The class given is binding. Particulars: displacement of Adenosine A2A Receptor Red antagonist fluorescent ligand, 12.5 nM. An excerpt:
The final concentration of DMSO was 1%.
(Time-resolved FRET reads energy transfer from a long-lived donor to a nearby acceptor.)

For assay [2], the target named is human adenosine A2B receptor (Homo sapiens (Human), UniProt P29275). As to the kind of experiment: Adenosine A2B Receptor Cyclic AMP GS Assay. Particulars: HEK-293 cells, agonist NECA at 12 nM, cAMP accumulation; read-out: A2B—cAMP_EC50. In kind it is cell-based. On the procedure:
Stably transfected HEK-293 cells expressing the human adenosine A2B receptor (Perkin Elmer) were maintained in MEM culture medium with 10% FBS and 100 μg/mL Geneticin (Life Technologies). 18 to 24 hours prior to assay, geneticin was removed from culture. The cisbio cAMP-GS Dynamic kit utilizing the FRET (Fluorescence Resonance Energy Transfer) technology was used to measure cAMP accumulation in the cells. Compounds of the present disclosure at an appropriate concentration were mixed with 10000 cells/well in white 96 well half area plates (Perkin Elmer) for 30 min at room temperature gently shaking. Agonist, NECA (R&D Technologies) at 12 nM was added to each well for 60 min at room temperature gently shaking. Detection reagents, d2-labeled cAMP (acceptor) and anti-cAMP cryptate (donor) were added to each well for 60 min at RT gently shaking. Plates were read on Pherastar (BMG Labtech), fluorescence ratio 665/620 was calculated and EC50 determination was performed by fitting the curve of percent of control versus the log of the compound concentration using GraphPad Prism.
(cAMP levels reflect the balance of adenylyl cyclase and phosphodiesterase activity.)

For 5 compounds, Ki and EC50 results are on record in US11390624B2, “Pyrazolopyridines and triazolopyridines as A2A / A2B inhibitors” (Incyte Corporation, priority 2019, dated 2022).

A word on the Ki: it is a dissociation constant, usually derived from enzyme kinetics or from competition with a known ligand. Low readings indicate a stronger hold on the target, high ones a looser hold on the target.

Sequence of human adenosine A2B receptor (P29275 whole entry): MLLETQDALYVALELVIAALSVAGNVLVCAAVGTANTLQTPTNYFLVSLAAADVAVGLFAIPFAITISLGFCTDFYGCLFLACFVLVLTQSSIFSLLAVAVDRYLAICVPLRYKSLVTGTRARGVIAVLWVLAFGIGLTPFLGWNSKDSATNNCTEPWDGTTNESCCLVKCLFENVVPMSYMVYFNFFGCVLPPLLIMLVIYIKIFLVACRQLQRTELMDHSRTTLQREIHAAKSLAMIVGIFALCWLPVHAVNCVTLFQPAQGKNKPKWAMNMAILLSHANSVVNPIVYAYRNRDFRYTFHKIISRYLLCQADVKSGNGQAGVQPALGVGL
Sequence of Adenosine A2A receptor (Tag-lite Adenosine A2A labeled cells) (P29274 whole entry): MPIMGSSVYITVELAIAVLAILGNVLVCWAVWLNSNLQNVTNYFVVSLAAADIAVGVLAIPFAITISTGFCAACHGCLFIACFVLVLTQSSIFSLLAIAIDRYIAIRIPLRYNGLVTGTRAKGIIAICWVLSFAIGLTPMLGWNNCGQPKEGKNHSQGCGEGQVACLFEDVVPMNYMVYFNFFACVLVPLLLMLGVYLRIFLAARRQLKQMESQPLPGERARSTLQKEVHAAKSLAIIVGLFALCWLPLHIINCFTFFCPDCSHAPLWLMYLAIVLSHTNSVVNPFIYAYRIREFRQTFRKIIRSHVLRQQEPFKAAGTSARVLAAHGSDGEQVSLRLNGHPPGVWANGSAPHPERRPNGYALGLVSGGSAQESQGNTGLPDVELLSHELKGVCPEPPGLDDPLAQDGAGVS

`Cc1ncoc1-c1c(-c2cccc(C#N)c2)nc(N)c2nn(Cc3ccn(C)n3)nc12` [Example 45, 3-(4-amino-2-((1-methyl-1H-pyrazol-3-yl)methyl)-7-(4-methyloxazol-5-yl)-2H-[1,2,3]triazolo[4,5-c]pyridin-6-yl)benzonitrile]: in assay [1], the Ki is not above 0.01 µM. For the same compound, the EC50 in assay [2] is not above 0.01 µM.
`Cc1ncoc1-c1c(-c2cccc(C#N)c2)nc(N)c2nn(C(C)c3ccccn3)nc12` (stereo not shown) [Example 46, 3-(4-amino-7-(4-methyloxazol-5-yl)-2-(1-(pyridin-2-yl)ethyl)-2H-[1,2,3]triazolo[4,5-c]pyridin-6-yl)benzonitrile]: the Ki in assay [1] is not above 0.01 µM. Further, in assay [2], the EC50 is not above 0.01 µM.
In assay [1], `CC(c1ccccn1)n1nc2c(N)nc(-c3cccc(C#N)c3)c(-c3ccncn3)c2n1` (stereo not shown) [Example 47, 3-(4-amino-2-(1-(pyridin-2-yl)ethyl)-7-(pyrimidin-4-yl)-2H-[1,2,3]triazolo[4,5-c]pyridin-6-yl)benzonitrile] returned a Ki not above 0.01 µM. For the same compound, the EC50 in assay [2] lay within 0.1 to 1 µM.
In the same order, the values of `Cc1ncoc1-c1c(-c2cccc(C#N)c2)nc(N)c2nn(CCc3ccccn3)nc12` [Example 48, 3-(4-amino-7-(4-methyloxazol-5-yl)-2-(2-(pyridin-2-yl)ethyl)-2H-[1,2,3]triazolo[4,5-c]pyridin-6-yl)benzonitrile] are not above 0.01 µM and 0.01 to 0.1 µM.
Compound `Cc1ncoc1-c1c(-c2cccc(C#N)c2F)nc(N)c2nn(CCc3ccccn3)nc12` [Example 49, 3-(4-amino-7-(4-methyloxazol-5-yl)-2-(2-(pyridin-2-yl)ethyl)-2H-[1,2,3]triazolo[4,5-c]pyridin-6-yl)-2-fluorobenzonitrile] registered a Ki in assay [1] not above 0.01 µM. Moreover, the EC50 in assay [2] fell in the range of 0.01 to 0.1 µM.
